Reference: US11040108B2, “Amino acid- and peptide-steroid conjugates and use thereof” (BRANDEIS UNIVERSITY, priority 2016, dated 2021)
Read-outs that look alike come from different tables or passages of the source.

Key:
[1] = tested on: A2780cis cell lines; experiment: Combination of 1a with other anti-cancer agents; assay type: cell-based, human; conditions: mixture of 1a with TIC10, Apo2L/TRAIL or doxorubicin
Method: In addition, 1a causes down regulation of cell survival proteins, Akt (Alexander, “Inhibiting the Akt Pathway in Cancer Treatment,” Pharmacy & Therapeutics 36(4): 225-227 (2011), which is hereby incorporated by reference in its entirety) and Src (Irby et al., “Role of Src Expression and Activation in Human Cancer,” Oncogene 19(49):5636-5642 (2000), which is hereby incorporated by reference in its entirety). Treatment of A2780cis cell lines with 1a (12.5 μM) for 24 hours downregulates expression of Src (FIGS. 13A-B) and Akt (FIGS. 13C-D). […] When used in combination with other anti-cancer agents, TIC10, Apo2L/TRAIL, and doxorubicin, a mixture of 1a with the individual anti-cancer agents was prepared, and then the cells were incubated with the mixture.

[2] = tested on: lipid rafts in A2780cis cells; experiment: Laurdan staining of lipid rafts, A2780cis; assay type: cell-based, human; conditions: 1a 12.5 μM, 12 hours, 10 μM laurdan
Source text: Considering that cholesterol is the basic component of lipid rafts, dynamic assemblies in cell membrane (Simons et al., “Functional Rafts in Cell Membranes,” Nature 387:569 (1997), which is hereby incorporated by reference in its entirety), laurdan, a commonly used probe for the polarity membrane (Parasassi et al., “Quantitation of Lipid Phases in Phospholipid Vesicles by the Generalized Polarization of Laurdan Fluorescence,” Biophys. J. 60:179 (1991), which is hereby incorporated by reference in its entirety), was used to examine the changes of lipid rafts upon the EISA of […]. Without treatment of 1a, the fluorescence of laurdan dispersed relatively evenly in the whole cell membrane (FIG. 8C).

[3] = tested on: Src, Akt, p-SAPK/JNK in A2780cis cell lines; experiment: Expression of Src, Akt and p-SAPK/JNK (CLSM, Western blot); assay type: cell-based, human
Method: Further exploration of the mode of action of 1a against A2780cis and HeLa cells was carried out via Western blot for the following ER stress markers: CHOP, Bip, PDI, IRE1α, Calnexin, Erol-Lα, PERK, and β-actin; or p-SAPK/JNK. Western blot was carried out via gel electrophoresis at […] for 1.5 hrs, and then transferring the protein on the gel to PVDF membranes for overnight at […] (4° C.). After that, the membrane was incubated with primary antibodies (obtained from Cell Signaling Technology) overnight at 4° C. The membrane was then incubated with secondary antibodies for 1 h at room temperature. This was followed by the reaction with ECL solutions for 10 minutes, and analysis of the results by autoradiography. Generation of ROS was detected in CLSM images via DHE emissions in exposed cells. CLSM imaging was carried out at the excitation of 543 nm and DHE emission was detected at the wavelength at 575 nm to 625 nm; or detection of anti-phospho-SRC and anti-phospho-Akt.
In addition, 1a causes down regulation of cell survival proteins, Akt (Alexander, “Inhibiting the Akt Pathway in Cancer Treatment,” Pharmacy & Therapeutics 36(4): 225-227 (2011), which is hereby incorporated by reference in its entirety) and Src (Irby et al., “Role of Src Expression and Activation in Human Cancer,” Oncogene 19(49):5636-5642 (2000), which is hereby incorporated by reference in its entirety). […]

[4] = tested on: Saos-2 osteosarcoma cells; experiment: MTT assay, cell viability of Saos-2; assay type: cell-based; conditions: Homo sapiens, read-out: IC50 against Saos-2
Method: (§1) HeLa, Saos-2, HS-5, HepG2, T98G, and A2780 cells were purchased from American-type Culture Collection (ATCC, USA). A2780cis cell was purchased from Sigma. HeLa cells, HepG-2 cells, and T98G cells were cultured in MEM Medium supplemented with 10% v/v fetal bovine serum, 100 U/mL penicillin, and 100 μg/mL streptomycin. Saos-2 cells were cultured in McCoy's 5a Medium (for Saos-2) supplemented with 15% v/v fetal bovine serum, 100 U/mL penicillin, and 100 μg/mL streptomycin. HS-5 cells were cultured in Dulbecco's Modified Eagle's medium (DMEM) supplemented with 10% v fetal bovine serum (FBS), 100 U/mL penicillin, and 100 μg/mL streptomycin. A2780cis cells were cultured in RPMI 1640 Medium supplemented with 10% v/v fetal bovine serum, 100 U/mL penicillin, and 100 μg/mL streptomycin (cisplatin only necessary every 2-3 passages). All cells were maintained at 37° C. in a humidified atmosphere of 5% CO2.
(§2) An MTT assay was used to test the cytotoxicity. All different cell lines were seeded in 96-well plates at 1×10^5 cells/well for 24 hours followed by removal of the culture medium and subsequent addition of culture medium containing different concentrations of the precursors. […] The absorbance of each well at 595 nm was measured by a multimode microplate reader. […]

[5] = tested on: F-actin in HeLa cells; experiment: Actin staining (CLSM), HeLa; assay type: cell-based, human; conditions: 1a 25 μM, 12 hours
Method: Cells in exponential growth phase were seeded in confocal dish (3.5 cm) at 1×10^5 to 2×10^5 cells per dish. After putting the dish in incubator for 24 hours, culture medium was removed, and fresh medium containing precursor (12.5 μM 1a for A2780cis, 25 μM 1a for HeLa) was added. After 12 hours, the medium was removed and PBS was used to wash the cells for three times. After fixing by 4% paraformaldehyde for 15 minutes, 1 mL of 0.1% Triton X-100 in PBS buffer was added for 30 minutes. After washing the cells three times by PBS, 1 mL of 0.1% BSA in PBS was added for 30 minutes, and then the cells were washed by PBS for three times. 1 mL of PBS containing 5 unit of Alexa 633 was added to the cells for 1 hour. After removing the buffer and washing the cells three times by PBS, 1 mL of Hoechst (1 μg/mL) was added for 10 minutes. Then, the cells were washed three times with PBS buffer before imaging.
Similar to the case of A2780cis, the change of the viability of the HeLa cells co-incubated with 1a and several specific inhibitors was examined to understand the mechanism of cell death. […] To verify the assemblies of 1b interact with F-actin, actin tracker was used to visualize F-actin filament in HeLa cells.

[6] = tested on: HepG2 human liver carcinoma cells; experiment: MTT assay, cell viability of HepG2; assay type: cell-based; conditions: read-out: IC50 against HepG-2
Method: as §1, §2

In the case of `CC(C)CCC[C@@H](C)C1CC[C@H]2[C@@H]3CC=C4CC(OC(=O)NC(Cc5ccc(OP(=O)(O)O)cc5)C(=O)O)CC[C@]4(C)[C@H]3CC[C@]12C` (stereo partly drawn) [1a, Cholesterol-(phospho)D-Tyr], the “effect of combination treatments” value [1] is reported as “synergistic effects”, the “laurdan fluorescence in cell membrane (lipid rafts)” value [2] is reported as “increased inhomogeneity of the fluorescence” and the “expression of Src and Akt” value ([3]; 1a 12.5 μM, 24 hours) is reported as “downregulates”. The p-SAPK/JNK expression levels ([3]; 24 hour treatment, Western blot) was “enhanced”, the IC50 ([4]; 48 hours) was 41 µM and the IC50 ([4]; 72 hours) was 26 µM. For the same compound, the F-actin filaments [5] was “considerably decreased actin filaments”, the IC50 ([6]; 48 hours) was 45 µM and the IC50 ([6]; 72 hours) was 35 µM.
